# Experimental data published in US20250270190A1, “KIT INHIBITORS” (BLUEPRINT MEDICINES CORPORATION, priority 2022, published 2025).
# Biological target: T1, c-kit autophosphorylation (Phospho c-Kit Tyr721) in HMC 1.1 (exon 11/13) cells, V654A (Homo sapiens, UniProt P10721, V560G/V654A)
# T1 construct: endogenous in cells; host or cells: HMC 1.1 (exon 11/13) cells
# Experiment: pKIT Meso Scale Discovery (MSD) assay, inhibition of autophosphorylation of KIT, HMC1.1_V654A
# Type: cell-based
# Conditions: Table 1, cell line not named for Table 1, b1056 names pKIT HMC1.1_V654A, read-out: Code (IC50 for inhibition of autophosphorylation of KIT, pKIT MSD assay)
# Text: In this MSD assay, specific capture antibodies for the analytes were coated in arrays in each well of a 96-well carbon electrode plate surface. The detection system used SULFO-TAG™ labels that emit light upon electrochemical stimulation initiated at the electrode surfaces of the […] and MULTI-SPOT® plates. The electrical stimulation was decoupled from the output signal, which was light and generated assays with minimal background. The goal of this assay was to assess the percent inhibition of autophosphorylation of c-kit in cells when treated with compounds of the disclosure in a dose-dependent manner.
# HMC1.1 cells were maintained in IMDM media supplemented with 20% Calf Serum with Iron and 100 units/mL Penicillin-Streptomycin and grown in a 37° C. humidified tissue culture incubator. HMC1.1 cells were passaged by 1:5 dilution into fresh IMDM media supplemented with 20% Calf Serum with Iron and 100 units/mL Penicillin-Streptomycin every 5-7 days and were discarded after 20 passages.
# Seeding was performed as follows: HMC cells were brought to 1×10^6 cells/mL in fresh phenol red free, serum-free, iron-free IDM media with Pen/Strep; cells were seeded/plated into respective U-bottom plate by dispensing 50 μL/well (50,000 cells) using the Multidrop, and covered and incubated cells at 37° C. in a humidified tissue culture incubator for 4 hours (starvation).
# Dosing was performed as follows: The compound mother plate was prepared by adding 16 μL of compound to 24 μL of DMSO to row A, odd-numbered columns of screen matrix plate. […] Intermediate plates were prepared in V-bottom plates by dispensing 98 μL of phenol red free, serum free IMDM media with Pen/Strep into all wells. 2 μL DMSO or 2 μL 10 mM staurosporine was added to appropriate control wells. At the end of four hours, the Bravo protocol 10 cpds vertical dose MSD 2 U-plates 96-well was used to: add 2 μL from the compound plate to the intermediate plate and dose cells with 7 μL from the intermediate plate. The cells were covered and incubated at 37° C. in a humidified tissue culture incubator for 90 min. The complete lysis buffer was prepared with AlphaLISA 5× Lysis Buffer supplemented with 1× protease inhibitor cocktail and kept on ice. The cells were pelleted by centrifuging plate at 2500×g for 5 min, 4° C. and media removed. Complete lysis buffer was added (14 μL/well). The cells were covered and shaken at 4° C. on a plate shaker at 600 rpm for 30 min and kept cold
# The MSD protocol was preformed as follows: Tris Wash Buffer (2L) was prepared by diluting 10× stock of Tris Wash Buffer to 1× in water. Blocking Solution was prepared by dissolving 600 mg Blocker A in 20 mL 1× Trish Wash Buffer (per plate). The Antibody Dilution Buffer was prepared by mixing 1 mL Blocking solution and 2 mL 1× Trish Wash Buffer (per plate) and kept on ice. Blocking Solution was added (150 μL/well) to each MSD plate using a multichannel repeater pipette. The plate was covered and incubated at room temperature on a plate shaker at 700 rpm for hr. The Bio Tek protocol RL-96w-wash-MSD_stacker_fromC was used to wash plates 3× with 150 μL/well. Cells were pelleted by centrifuging lysate plates at 2500×g for 5 mins. The Bravo protocol was used (transfer 25 ul supernatants from V-96 to assay plate) to transfer 25 μL sample lysate per well to each MSD plate. The plates were covered and incubated at room temperature on a plate shaker at 700 rpm for hr. The Bio Tek protocol RL-96w-wash-MSD_stacker_fromC was used to wash plates 3× with 150 μL/well. The Detection Antibody Solution was prepared by diluting the 60 μL of the 50× antibody stock in 2.94 mL of the Antibody Dilution Buffer (per plate) and kept on ice. 25 μL/well of detection antibody solution was added to each MSD plate. The plates were covered and incubated at room temperature on a plate shaker at 700 rpm for 1 hr. The Read Buffer was prepared by diluting 5 mL of 4× stock of Read Buffer to 1× in 15 mL water (per plate).
# T1 sequence (P10721 26-976 V560G/V654A): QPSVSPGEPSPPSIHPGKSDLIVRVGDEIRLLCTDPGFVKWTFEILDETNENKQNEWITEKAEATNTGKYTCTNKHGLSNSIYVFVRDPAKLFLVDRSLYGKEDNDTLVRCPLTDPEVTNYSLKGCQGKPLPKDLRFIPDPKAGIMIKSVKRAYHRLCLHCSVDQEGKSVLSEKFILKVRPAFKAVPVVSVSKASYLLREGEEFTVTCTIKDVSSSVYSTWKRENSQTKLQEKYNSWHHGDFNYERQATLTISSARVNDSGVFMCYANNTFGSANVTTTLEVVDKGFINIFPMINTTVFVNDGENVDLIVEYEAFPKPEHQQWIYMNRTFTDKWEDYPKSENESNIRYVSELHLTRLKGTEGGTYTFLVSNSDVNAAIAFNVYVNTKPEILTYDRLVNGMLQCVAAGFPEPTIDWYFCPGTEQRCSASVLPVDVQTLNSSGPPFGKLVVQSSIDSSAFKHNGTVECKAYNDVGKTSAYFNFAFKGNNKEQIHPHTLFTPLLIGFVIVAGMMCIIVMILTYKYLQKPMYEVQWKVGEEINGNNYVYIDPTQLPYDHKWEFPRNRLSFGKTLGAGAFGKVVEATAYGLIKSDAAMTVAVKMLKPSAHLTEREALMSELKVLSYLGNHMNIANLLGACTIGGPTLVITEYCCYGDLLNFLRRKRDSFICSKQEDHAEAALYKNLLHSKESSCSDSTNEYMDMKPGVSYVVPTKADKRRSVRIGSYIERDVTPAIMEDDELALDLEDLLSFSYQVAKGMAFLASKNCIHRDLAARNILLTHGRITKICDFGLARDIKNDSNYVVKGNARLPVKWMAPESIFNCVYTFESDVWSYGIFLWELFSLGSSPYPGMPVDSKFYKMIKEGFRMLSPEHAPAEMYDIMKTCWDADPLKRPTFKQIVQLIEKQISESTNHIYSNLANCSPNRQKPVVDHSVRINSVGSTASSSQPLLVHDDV
row,SMILES,IC50 [nM]
1,"CC(CF)Oc1cc(Nc2cc(N)nc(C(F)F)n2)ncc1-c1cnn(CC(C)(C)O)c1 (stereo not shown) [Compound 190, 1-(4-(6-((6-amino-2-(difluoromethyl)pyrimidin-4-yl)amino)-4-((1-fluoropropan-2-yl)oxy)pyridin-3-yl)-1H-pyrazol-1-yl)-2-methylpropan-2-ol]",< 10
2,"CC(C)Nc1cc(Nc2cc(N)nc(C(F)F)n2)ncc1C(=O)NCc1ncco1 [Compound 148, 6-((6-amino-2-(difluoromethyl)pyrimidin-4-yl)amino)-4-(isopropylamino)-N-(oxazol-2-ylmethyl)nicotinamide]",< 10
3,"CNC(=O)c1cnc(Nc2cc(N)nc(C(F)F)n2)cc1NCC(F)(F)F [Compound 82, 6-((6-amino-2-(difluoromethyl)pyrimidin-4-yl)amino)-N-methyl-4-((2,2,2-trifluoroethyl)amino)nicotinamide]",< 10
4,"COc1cc(Nc2cc(N)nc(C(F)F)n2)ncc1-c1cnn([C@@H]2CCOC2)c1 (single isomer, unassigned) [Compound 110, (R)-2-(difluoromethyl)-N4-(4-methoxy-5-(1-(tetrahydrofuran-3-yl)-1H-pyrazol-4-yl)pyridin-2-yl)pyrimidine-4,6-diamine or (S)-2-(difluoromethyl)-N4-(4-methoxy-5-(1-(tetrahydrofuran-3-yl)-1H-pyrazol-4-yl)pyridin-2-yl)pyrimidine-4,6-diamine]",< 10
5,"CC(C)Oc1cc(Nc2cc(N)nc([C@H](C)F)n2)ncc1-c1cnn([C@H]2CCOC2)c1 (single isomer, unassigned) [Compound 157, 2-((S)-1-fluoroethyl)-N4-(4-isopropoxy-5-(1-((S)-tetrahydrofuran-3-yl)-1H-pyrazol-4-yl)pyridin-2-yl)pyrimidine-4,6-diamine or 2-((S)-1-fluoroethyl)-N4-(4-isopropoxy-5-(1-((R)-tetrahydrofuran-3-yl)-1H-pyrazol-4-yl)pyridin-2-yl)pyrimidine-4,6-diamine]",< 10
6,"C[C@H](CF)Nc1cc(Nc2cc(N)nc(C(F)F)n2)ncc1C(=O)NCc1cocn1 [Compound 177, (R)-6-((6-amino-2-(difluoromethyl)pyrimidin-4-yl)amino)-4-((1-fluoropropan-2-yl)amino)-N-(oxazol-4-ylmethyl)nicotinamide]",10 to 40
7,"Cn1cc(-c2cnc(Nc3cc(N)nc(C(F)F)n3)cc2OC(F)F)cn1 [Compound 69, N4-(4-(difluoromethoxy)-5-(1-methyl-1H-pyrazol-4-yl)pyridin-2-yl)-2-(difluoromethyl)pyrimidine-4,6-diamine]",10 to 40
8,"[2H]C([2H])([2H])NC(=O)c1cnc(Nc2cc(N)nc(C(F)F)n2)cc1NC [Compound 6, 6-((6-amino-2-(difluoromethyl)pyrimidin-4-yl)amino)-N-(methyl-d3)-4-(methylamino)nicotinamide]",10 to 40
9,"COc1cc(Nc2cc(N)nc(C(F)F)n2)ncc1-c1cnn(C[C@H]2CCN2C)c1 (single isomer, unassigned) [Compound 138, (R)-2-(difluoromethyl)-N4-(4-methoxy-5-(1-((1-methylazetidin-2-yl)methyl)-1H-pyrazol-4-yl)pyridin-2-yl)pyrimidine-4,6-diamine or (S)-2-(difluoromethyl)-N4-(4-methoxy-5-(1-((1-methylazetidin-2-yl)methyl)-1H-pyrazol-4-yl)pyridin-2-yl)pyrimidine-4,6-diamine]",< 10
10,"CC(Oc1cc(Nc2cc(N)nc(C(F)F)n2)ncc1-c1cnn(C)c1)C(F)F (stereo not shown) [Compound 128, 2-(difluoromethyl)-N4-(4-((1,1-difluoropropan-2-yl)oxy)-5-(1-methyl-1H-pyrazol-4-yl)pyridin-2-yl)pyrimidine-4,6-diamine]",< 10
11,"Cn1cc(-c2cnc(Nc3cc(N)nc(C(F)F)n3)cc2O[C@H]2C[C@@H](O)C2)cn1 [Compound 107, (1s,3s)-3-((2-((6-amino-2-(difluoromethyl)pyrimidin-4-yl)amino)-5-(1-methyl-1H-pyrazol-4-yl)pyridin-4-yl)oxy)cyclobutan-1-ol]",10 to 40
12,"CNC(C)(C)Cn1cc(-c2cnc(Nc3cc(N)nc(C(F)F)n3)cc2OC(F)(F)F)cn1 [Compound 200, 2-(difluoromethyl)-N4-(5-(1-(2-methyl-2-(methylamino)propyl)-1H-pyrazol-4-yl)-4-(trifluoromethoxy)pyridin-2-yl)pyrimidine-4,6-diamine]",< 10
13,"CNC(=O)c1cnc(Nc2cc(N)nc(C(F)F)n2)cc1NCC1CCC1 [Compound 61, 6-((6-amino-2-(difluoromethyl)pyrimidin-4-yl)amino)-4-((cyclobutylmethyl)amino)-N-methylnicotinamide]",10 to 40
14,COc1cc(Nc2cc(N)nc(C(F)F)n2)ncc1-c1cnn(C(C)C)c1 [Compound 56],< 10
15,"CN1CC(n2cc(-c3cnc(Nc4cc(N)nc(C(F)F)n4)cc3OC[C@@H]3CCCO3)cn2)C1 [Compound 201, (S)-2-(difluoromethyl)-N4-(5-(1-(1-methylazetidin-3-yl)-1H-pyrazol-4-yl)-4-((tetrahydrofuran-2-yl)methoxy)pyridin-2-yl)pyrimidine-4,6-diamine]",10 to 40
16,"CN(C)CCn1cc(-c2cnc(Nc3cc(N)nc(C(F)F)n3)cc2OC(F)F)cn1 [Compound 179, N4-(4-(difluoromethoxy)-5-(1-(2-(dimethylamino)ethyl)-1H-pyrazol-4-yl)pyridin-2-yl)-2-(difluoromethyl)pyrimidine-4,6-diamine]",< 10
17,"CN[C@@H](C)Cn1cc(-c2cnc(Nc3cc(N)nc(C(F)F)n3)cc2OC)cn1 (single isomer, unassigned) [Compound 117, (S)-2-(difluoromethyl)-N4-(4-methoxy-5-(1-(2-(methylamino)propyl)-1H-pyrazol-4-yl)pyridin-2-yl)pyrimidine-4,6-diamine or (R)-2-(difluoromethyl)-N4-(4-methoxy-5-(1-(2-(methylamino)propyl)-1H-pyrazol-4-yl)pyridin-2-yl)pyrimidine-4,6-diamine]",< 10
18,"CCNc1cc(Nc2cc(N)nc([C@H](C)F)n2)ncc1C(=O)NC [Compound 11, (S)-6-((6-amino-2-(1-fluoroethyl)pyrimidin-4-yl)amino)-4-(ethylamino)-N-methylnicotinamide]",< 10
19,"CN1CC(n2cc(-c3cnc(Nc4cc(N)nc(C(F)F)n4)cc3OC3COC3)cn2)C1 [Compound 183, 2-(difluoromethyl)-N4-(5-(1-(1-methylazetidin-3-yl)-1H-pyrazol-4-yl)-4-(oxetan-3-yloxy)pyridin-2-yl)pyrimidine-4,6-diamine]",> 40
20,"CNC(=O)c1cnc(Nc2cc(N)nc(C(F)F)n2)cc1NC1COC1 [Compound 42, 6-((6-amino-2-(difluoromethyl)pyrimidin-4-yl)amino)-N-methyl-4-(oxetan-3-ylamino)nicotinamide]",10 to 40
21,"CCC(C)CNc1cc(Nc2cc(N)nc(C(F)F)n2)ncc1C(=O)NC (stereo not shown) [Compound 65, 6-((6-amino-2-(difluoromethyl)pyrimidin-4-yl)amino)-N-methyl-4-((2-methylbutyl)amino)nicotinamide]",10 to 40
22,"COc1cc(Nc2cc(N)nc(C(F)F)n2)ncc1-c1cnn(CCN(C)C)c1 [Compound 115, 2-(difluoromethyl)-N4-(5-(1-(2-(dimethylamino)ethyl)-1H-pyrazol-4-yl)-4-methoxypyridin-2-yl)pyrimidine-4,6-diamine]",10 to 40
